A word on the IC50: it is the concentration that inhibits the measured activity by half.

This note sets out measurements from US20250188068A1, “AMIDO CYCLOPROPYL DERIVATIVES AS LPA RECEPTOR INHIBITORS” (CHIESI FARMACEUTICI S.P.A., priority 2022, published 2025).

Bounds are passed on as bounds.

The target in this assay is T1, human recombinant LPA1 expressed in CHO cells (Homo sapiens, UniProt Q92633).
T1 construct: expressed in transfected cells; host or cells: CHO cells (CHO-hLPA1 cell line)
T1 sequence (Q92633 whole entry): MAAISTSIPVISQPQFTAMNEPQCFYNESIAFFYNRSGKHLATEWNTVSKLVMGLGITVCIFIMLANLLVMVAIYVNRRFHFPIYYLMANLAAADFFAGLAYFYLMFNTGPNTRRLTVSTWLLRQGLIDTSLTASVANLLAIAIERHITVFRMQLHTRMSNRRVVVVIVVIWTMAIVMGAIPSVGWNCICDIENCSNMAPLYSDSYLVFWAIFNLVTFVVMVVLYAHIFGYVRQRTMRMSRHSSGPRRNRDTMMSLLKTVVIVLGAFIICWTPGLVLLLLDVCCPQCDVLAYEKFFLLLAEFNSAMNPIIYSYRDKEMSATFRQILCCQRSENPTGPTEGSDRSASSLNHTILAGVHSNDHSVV
The assay is described as follows: FLIPR calcium mobilization assay, LPA1 antagonism in CHO-hLPA1 cells. In kind it is cell-based. To be noted: inhibition of LPA EC80 Ca2+ response, 30 min pre-incubation, range of activity. The procedure: The effectiveness of compounds of the present invention as LPA1 antagonist can be determined at the human recombinant LPA1 expressed in CHO cells, using a FLIPR assay in 384 well format.
CHO-hLPA1 cell lines are cultured in a humidified incubator at 5% CO2 in DMEM/F-12 (1:1) MIXTURE with 2 mM Glutamax, supplemented with 10% of Foetal Bovine Serum, 1 mM Sodium Pyruvate, 11 mM Hepes and 1× Penicillin/Streptomycin. CHO hLPA1 cells are seeded into black walled clear-bottom 384-well plates (#781091, Greiner Bio-One GmbH) at a density of 7,500 cells per well in 50 μl culture media and grown overnight in a 37° C. humidified CO2-incubator. Serial dilutions (1:3 or 1:4, 11 points CRC) of compounds are performed in 100% DMSO at 200× the final concentration. The compounds are diluted 1:50 prior to the experiment with Assay Buffer (20 mM HEPES, 145 mM NaCl, 5 mM KCl, 5.5 mM glucose, 1 mM MgCl2 and 2 mM CaCl2), pH 7.4 containing 0.01% Pluronic F-127) to obtain a solution corresponding to […] the final concentration in the assay (4×, 2% DMSO). The final concentration of DMSO in the assay will be 0.5% in each well. Medium is removed by aspiration and cells are then incubated with 30 μl of a loading solution containing 5 μM of the cytoplasmic Ca2+ indicator Cal-520 AM in Assay Buffer containing 2.5 mM probenecid for 30 min at 37° C. incubator (cell loading). The loaded cell plates are transferred into the FLIPR instrument and calcium responses are monitored during the on-line addition protocols. For testing of compounds, after the cell loading, 10 μl/well of 4× antagonists' solution was added onto the cells. After 30 min pre-incubation (at 37° C.), 10 μl/well of 5× concentrated LPA EC80 was added and Ca2+ mobilization responses was followed during the on-line addition protocol. Intracellular peak fluorescence values subtracted by baseline fluorescence are exported and analysed to determine IC50 values, respectively. The calcium response is expressed as percentage of the maximal inhibition of the EC80 agonist response.
The raw data obtained in unstimulated controls (DMSO, no LPA) are set as “100% inhibition”, while the raw data obtained in negative controls, i.e. in the absence of compounds and stimulating with LPA EC80, are set as “0% inhibition”.
The raw data (peak height expressed as relative fluorescence units) are normalized and transformed into “percent of inhibition”. Curve fitting and pIC50 (−Log IC50) estimations are carried out using a four-parameter logistic model using XLfit Software.
Regarding `Cc1nc(-c2onc(C)c2NC(=O)O[C@H](C)c2ccccc2Cl)ccc1CNC(=O)C1C(C(=O)O)C1(F)F` (mixture of isomers) [Compound 17, 3-(((6-(4-((((R)-1-(2-chlorophenyl)ethoxy)carbonyl)amino)-3-methylisoxazol-5-yl)-2-methylpyridin-3-yl)methyl)carbamoyl)-2,2-difluorocyclopropane-1-carboxylic acid, mix of Trans diastereomers], the 50% inhibitory concentration (IC50) was less than 50 nM.
The figure for `C[C@@H](OC(=O)Nc1ncoc1-c1ccc(NC(=O)[C@@H]2[C@@H](C(=O)O)C2(F)F)cc1)c1ccccc1Cl` [Compound 40, methyl (1S,3S)-3-((4-(4-((((R)-1-(2-chlorophenyl)ethoxy)carbonyl)amino)oxazol-5-yl)phenyl)carbamoyl)-2,2-difluorocyclopropane-1-carboxlic acid] is 100 to 200 nM; for `Cc1nc(-c2onc(C)c2NC(=O)O[C@H](C)c2ccccc2Cl)ccc1NC(=O)C1C(c2nsc(=O)[nH]2)C1(F)F` (stereo partly drawn) [Compound 43, (R)-1-(2-chlorophenyl)ethyl (5-(5-(2,2-difluoro-3-(5-oxo-4,5-dihydro-1,2,4-thiadiazol-3-yl)cyclopropane-1-carboxamido)-6-methylpyridin-2-yl)-3-methylisoxazol-4-yl)carbamate] it is less than 50 nM; for `Cc1noc(-c2ccc(NC(=O)C3C(C(=O)O)C3(F)F)cn2)c1NC(=O)O[C@H](C)c1ccccc1Cl` (single isomer, unassigned) [Compound 5] it is less than 50 nM.
The figure for `C[C@@H](OC(=O)Nc1cccn1-c1ccc(NC(=O)[C@@H]2[C@@H](C(=O)O)C2(F)F)cc1)c1ccccc1Cl` [Compound 39] is 100 to 200 nM.
The figure for `Cc1noc(-c2ccc(NC(=O)C3C(c4nnn[nH]4)C3(F)F)cc2)c1NC(=O)O[C@H](C)c1ccccc1Cl` (mixture of isomers) [Compound 13, (R)-1-(2-chlorophenyl)ethyl (5-(4-(2,2-difluoro-3-(1H-tetrazol-5-yl)cyclopropane-1-carboxamido)phenyl)-3-methylisoxazol-4-yl)carbamate, mix of Trans diastereomers] is less than 50 nM.
For `Cc1nc(-c2onc(C)c2NC(=O)O[C@H](C)c2ccccc2Cl)ccc1CNC(=O)C1C(C(=O)O)C1(F)F` (mixture of isomers) [Compound 16, 3-(((6-(4-((((R)-1-(2-chlorophenyl)ethoxy)carbonyl)amino)-3-methylisoxazol-5-yl)-2-methylpyridin-3-yl)methyl)carbamoyl)-2,2-difluorocyclopropane-1-carboxylic acid, mix of Cis diastereomers], the IC50 is 50 to 100 nM.
The value for `Cc1nc(-c2onc(C)c2NC(=O)O[C@H](C)c2ccccc2Cl)ccc1NC(=O)[C@H]1[C@H](C(=O)O)C1(F)F` [Compound 2, (1R,3R)-3-((6-(4-((((R)-1-(2-chlorophenyl)ethoxy)carbonyl)amino)-3-methylisoxazol-5-yl)-2-methylpyridin-3-yl)carbamoyl)-2,2-difluorocyclopropane-1-carboxylic acid] was less than 50 nM; that for `Cc1nc(-c2onc(C)c2NC(=O)O[C@H](C)c2ccccc2Cl)ccc1NC(=O)[C@@H]1[C@@H](C(=O)O)C1(F)F` [Compound 1, (1S,3S)-3-((6-(4-((((R)-1-(2-chlorophenyl)ethoxy)carbonyl)amino)-3-methylisoxazol-5-yl)-2-methylpyridin-3-yl)carbamoyl)-2,2-difluorocyclopropane-1-carboxylic acid] was less than 50 nM; that for `Cc1nc(-c2onc(C)c2NC(=O)O[C@H](C)c2ccccc2Cl)ccc1NC(=O)C1C(c2noc(=S)[nH]2)C1(F)F` (stereo partly drawn) [Compound 41, (R)-1-(2-chlorophenyl)ethyl (5-(5-(2,2-difluoro-3-(5-thioxo-4,5-dihydro-1,2,4-oxadiazol-3-yl)cyclopropane-1-carboxamido)-6-methylpyridin-2-yl)-3-methylisoxazol-4-yl)carbamate] was less than 50 nM.
`Cc1nc(-c2onc(C)c2Nc2cncc(OC(C)C)n2)ccc1NC(=O)C1C(C(=O)O)C1(F)F` (single isomer, unassigned; diastereomer 2) [Compound 11]: the IC50 was less than 50 nM.
Take `Cc1nc(-c2onc(C)c2CNc2nccc(C3CCCCC3)n2)ccc1NC(=O)C1C(C(=O)O)C1(F)F` (single isomer, unassigned; enantiomer 1) [Compound 19, Single Enantiomer 1 of Trans-3-((6-(4-(((4-cyclohexylpyrimidin-2-yl)amino)methyl)-3-methylisoxazol-5-yl)-2-methylpyridin-3-yl)carbamoyl)-2,2-difluorocyclopropane-1-carboxylic acid]: the IC50 is less than 50 nM.
Consider `Cc1noc(-c2ccc(NC(=O)[C@@H]3[C@@H](C(=O)O)C3(F)F)cc2)c1COC(=O)N(C)C1CCCC1` (racemic) [Compound 36, 3-((4-(4-(((cyclopentyl(methyl)carbamoyl)oxy)methyl)-3-methylisoxazol-5-yl)phenyl)carbamoyl)-2,2-difluorocyclopropane-1-carboxylic acid, mix of Trans diastereomers], for which the IC50 was in the range of 100 to 200 nM.
The value for `Cc1nc(-c2onc(C)c2CNc2nccc(-c3cccnc3)n2)ccc1NC(=O)[C@@H]1[C@@H](C(=O)O)C1(F)F` [Compound 25, (1S,3S)-2,2-difluoro-3-((2-methyl-6-(3-methyl-4-(((4-(pyridin-3-yl)pyrimidin-2-yl)amino)methyl)isoxazol-5-yl)pyridin-3-yl)carbamoyl)cyclopropane-1-carboxylic acid] was less than 50 nM.
The figure for `Cc1nc(-c2onc(C)c2NC(=O)O[C@H](C)c2ccccc2Cl)ccc1NC(=O)C1C(C(=O)O)C1(F)F` (stereo partly drawn) [Compound 4, 3-((6-(4-((((R)-1-(2-chlorophenyl)ethoxy)carbonyl)amino)-3-methylisoxazol-5-yl)-2-methylpyridin-3-yl)carbamoyl)-2,2-difluorocyclopropane-1-carboxylic acid] is less than 50 nM.
The figure for `Cc1nc(-c2nnn(C)c2NC(=O)O[C@H](C)c2ccccc2Cl)ccc1NC(=O)C1C(C(=O)O)C1(F)F` (single isomer, unassigned) [Compound 32] is less than 50 nM.
As for `Cc1noc(-c2ccc(N(C)C(=O)C3C(C(=O)O)C3(F)F)cc2)c1NC(=O)O[C@H](C)c1ccccc1Cl` (single isomer, unassigned; diastereomer 2) [Compound 9], the half-inhibitory concentration (IC50) was 50 to 100 nM.
The figure for `Cc1nc(-c2snc(C)c2NC(=O)O[C@H](C)c2ccccc2Cl)ccc1NC(=O)C1C(C(=O)O)C1(F)F` (single isomer, unassigned; diastereomer 1) [Compound 31] is less than 50 nM; for `Cc1nc(-c2onc(C)c2CNc2nccc(-c3cnccn3)n2)ccc1NC(=O)[C@@H]1[C@@H](C(=O)O)C1(F)F` [Compound 23, (1S,3S)-2,2-difluoro-3-((2-methyl-6-(3-methyl-4-(((4-(pyrazin-2-yl)pyrimidin-2-yl)amino)methyl)isoxazol-5-yl)pyridin-3-yl)carbamoyl)cyclopropane-1-carboxylic acid] it is less than 50 nM; for `Cc1nc(-c2onc(C)c2CNc2nccc(-c3cccs3)n2)ccc1NC(=O)[C@@H]1[C@@H](C(=O)O)C1(F)F` [Compound 24, (1S,3S)-2,2-difluoro-3-((2-methyl-6-(3-methyl-4-(((4-(thiophen-2-yl)pyrimidin-2-yl)amino)methyl)isoxazol-5-yl)pyridin-3-yl)carbamoyl)cyclopropane-1-carboxylic acid] it is less than 50 nM.
The figure for `Cc1nc(-c2onc(C)c2CNc2nccc(-c3ccsc3)n2)ccc1NC(=O)[C@@H]1[C@@H](C(=O)O)C1(F)F` [Compound 21, (1S,3S)-2,2-difluoro-3-((2-methyl-6-(3-methyl-4-(((4-(thiophen-3-yl)pyrimidin-2-yl)amino)methyl)isoxazol-5-yl)pyridin-3-yl)carbamoyl)cyclopropane-1-carboxylic acid] is less than 50 nM; for `C[C@@H](OC(=O)Nc1c(-c2ccc(NC(=O)[C@@H]3[C@@H](C(=O)O)C3(F)F)cc2)nnn1C)c1ccccc1Cl` [Compound 35, (1S,3S)-3-((4-(5-((((R)-1-(2-chlorophenyl)ethoxy)carbonyl)amino)-1-methyl-1H-1,2,3-triazol-4-yl)phenyl)carbamoyl)-2,2-difluorocyclopropane-1-carboxylic acid] it is less than 50 nM.
